US20240269135A1, “METHODS OF TREATING BREAST CANCER” (ASTRAZENECA AB, priority 2021, published 2024)

Columns and labels:
[1] = OlympiA safety analysis: adverse events, blood transfusions; format: in vivo
Protocol: Efficacy analyses were based on the intention-to-treat (ITT) population. Survival functions were estimated by Kaplan-Meier method. The stratified Cox proportional-hazards model was used to estimate the hazard ratio and confidence intervals, the comparison of survival between treatment arms was tested by stratified log-rank test. […] Safety was assessed in the population who received at least one dose of study medication.
Adverse events of special interest included pneumonitis, radiation pneumonitis, myelodysplastic syndrome (MDS)/AML, and new primary malignancy other than AML/MDS.

[2] = OlympiA exposure to study treatment, dose intensity, dose reductions and treatment discontinuations; format: in vivo, human; settings: safety analysis set; 300 mg bd, N = 911
Protocol: A total of 1815 patients (911 in the olaparib-group and 904 in the placebo-group) were included in the safety analysis. The median number of days at 300 mg twice-daily protocol dose was 338 with percentage of intended dose being 94.8% in the olaparib-group, and 358 days and 98.9% in the placebo-group (Tables S11 to S13 in the Supplementary Appendix). Early treatment discontinuations, including discontinuations due to recurrence, occurred in 236 (25.9%) of the olaparib-group and 187 (20.7%) of the placebo-group (Figure S4 in the Supplementary Appendix).
In the olaparib-group, 228 patients (25.0%) required a dose reduction compared to 47 (5.2%) in the placebo-group. Adverse events requiring permanent discontinuation of the trial drug occurred in 90 patients (9.9%) in the olaparib-group and 38 patients (4.2%) in the placebo-group. […] (Table S15, S16 in the Supplementary Appendix). […] Any differences between the treatment arms are not considered clinically significant (Figure S5 in the Supplementary Appendix).

[3] = test system: metastatic HER2-negative breast cancer patients with gBRCA-P/LP variants; settings: 45% received capecitabine as comparator; cited from earlier work
[4] = olaparib group, safety analysis set
[5] = safety analysis set, olaparib n=911
[6] = safety analysis set, olaparib n=911, listed as olaparib
[7] = safety analysis set, 300 mg bd, N = 911
[8] = treatment month: >=1-2 months, 300 mg bd, N = 911
[9] = treatment month: >=2-3 months, 300 mg bd, N = 911
[10] = treatment month: >=3-4 months, 300 mg bd, N = 911
[11] = treatment month: >=4-5 months, 300 mg bd, N = 911
[12] = treatment month: >=5-6 months, 300 mg bd, N = 911
[13] = treatment month: >=6-7 months, 300 mg bd, N = 911
[14] = treatment month: >=7-8 months, 300 mg bd, N = 911
[15] = treatment month: >=8-9 months, 300 mg bd, N = 911
[16] = treatment month: >=9-10 months, 300 mg bd, N = 911
[17] = treatment month: >=10-11 months, 300 mg bd, N = 911
[18] = treatment month: >=11 months, 300 mg bd, N = 911
[19] = treatment month: Up to month 1, 300 mg bd, N = 911

O=C(c1cc(Cc2n[nH]c(=O)c3ccccc23)ccc1F)N1CCN(C(=O)C2CC2)CC1 [Olaparib, 4-[(3-{[4-(cyclopropane-carbonyl)piperazine-1-yl]carbonyl}-4-fluorophenyl)methyl]-2H-phthalazin-1-one]
anemia leading to discontinuation of study drug [1, 4]: 1.8%
fatigue leading to discontinuation of study drug [1, 4]: 1.3%
nausea leading to discontinuation of study drug [1, 4]: 2.0%
neutrophil count decreased leading to discontinuation of study drug [1, 4]: 1%
Number of patients with only 1 transfusion ([1]; safety analysis set, olaparib N=911): 4.1%
Patients with at least one blood transfusion ([1]; safety analysis set, olaparib N=911, up to 30 days after last dose): 5.8%
Neutrophil count decreased (neutropenia), Grade ≥3 [1, 5]: (4.8) %
Neutrophil count decreased, Grade ≥3 [1, 5]: 44 no.
White blood cell count decreased (leukopenia), Grade ≥3 [1, 5]: (3.0) %
White blood cell count decreased, Grade ≥3 [1, 5]: 27 no.
Anemia, Grade ≥3 [1, 6]: 8.7%
Fatigue, Grade ≥3 [1, 6]: 1.8%
Neutrophil count decreased (neutropenia), Grade ≥3 [1, 6]: 4.8%
White blood cell count decreased (leukopenia), Grade ≥3 [1, 6]: 3.0%
AE leading to permanent discontinuation of treatment: Abdominal pain upper [1, 7]: 1 (0.1) no. of patients (%)
AE leading to permanent discontinuation of treatment: Anaemia [1, 7]: 16 (1.8) no. of patients (%)
AE leading to permanent discontinuation of treatment: Arthralgia [1, 7]: 1 (0.1) no. of patients (%)
AE leading to permanent discontinuation of treatment: Breast cancer [1, 7]: 1 (0.1) no. of patients (%)
AE leading to permanent discontinuation of treatment: Decreased appetite [1, 7]: 2 (0.2) no. of patients (%)
AE leading to permanent discontinuation of treatment: Diarrhoea [1, 7]: 3 (0.3) no. of patients (%)
AE leading to permanent discontinuation of treatment: Dizziness [1, 7]: 2 (0.2) no. of patients (%)
AE leading to permanent discontinuation of treatment: Drug hypersensitivity [1, 7]: 3 (0.3) no. of patients (%)
AE leading to permanent discontinuation of treatment: Fatigue [1, 7]: 12 (1.3) no. of patients (%)
AE leading to permanent discontinuation of treatment: Headache [1, 7]: 7 (0.8) no. of patients (%)
AE leading to permanent discontinuation of treatment: Nausea [1, 7]: 18 (2.0) no. of patients (%)
AE leading to permanent discontinuation of treatment: Neutrophil count decreased [1, 7]: 9 (1.0) no. of patients (%)
AE leading to permanent discontinuation of treatment: Pruritus [1, 7]: 3 (0.3) no. of patients (%)
AE leading to permanent discontinuation of treatment: Vomiting [1, 7]: 7 (0.8) no. of patients (%)
AE leading to permanent discontinuation of treatment: White blood cell count decreased [1, 7]: 6 (0.7) no. of patients (%)
Any AE leading to permanent discontinuation [1, 7]: 90 (9.9) no. of patients (%)
lymphopenia, grade 3 or higher ([1]; safety analysis, olaparib-group): 1.2%
Blood transfusions over time, Total no. of transfusions [1, 8]: 2
Blood transfusions over time, no. of patients (%) [1, 8]: 2 (0.2) no. of patients (%)
Blood transfusions over time, Total no. of transfusions [1, 9]: 22
Blood transfusions over time, no. of patients (%) [1, 9]: 21 (2.3) no. of patients (%)
Blood transfusions over time, Total no. of transfusions [1, 10]: 10
Blood transfusions over time, no. of patients (%) [1, 10]: 8 (0.9) no. of patients (%)
Blood transfusions over time, Total no. of transfusions [1, 11]: 5
Blood transfusions over time, no. of patients (%) [1, 11]: 5 (0.5) no. of patients (%)
Blood transfusions over time, Total no. of transfusions [1, 12]: 8
Blood transfusions over time, no. of patients (%) [1, 12]: 7 (0.8) no. of patients (%)
Blood transfusions over time, Total no. of transfusions [1, 13]: 4
Blood transfusions over time, no. of patients (%) [1, 13]: 4 (0.4) no. of patients (%)
Blood transfusions over time, Total no. of transfusions [1, 14]: 8
Blood transfusions over time, no. of patients (%) [1, 14]: 8 (0.9) no. of patients (%)
Blood transfusions over time, Total no. of transfusions [1, 15]: 3
Blood transfusions over time, no. of patients (%) [1, 15]: 3 (0.3) no. of patients (%)
Blood transfusions over time, Total no. of transfusions [1, 16]: 2
Blood transfusions over time, no. of patients (%) [1, 16]: 2 (0.2) no. of patients (%)
Blood transfusions over time, Total no. of transfusions [1, 17]: 3
Blood transfusions over time, no. of patients (%) [1, 17]: 3 (0.3) no. of patients (%)
Blood transfusions over time, Total no. of transfusions [1, 18]: 5
Blood transfusions over time, no. of patients (%) [1, 18]: 5 (0.5) no. of patients (%)
Blood transfusions over time, Total no. of transfusions [1, 19]: 2
Blood transfusions over time, no. of patients (%) [1, 19]: 2 (0.2) no. of patients (%)
Number of patients with a dose reduction: 1 dose reduction (%) [2]: 170 (18.7) patients (%)
Number of patients with a dose reduction: 2 dose reductions (%) [2]: 57 (6.3) patients (%)
Number of patients with a dose reduction: 3 or more dose reductions (%) [2]: 1 (0.1) patients (%)
Patients with a dose reduction (%) [2]: 228 (25.0) patients (%)
Patients with no dose reduction (%) [2]: 683 (75.0) patients (%)
Reason for reduction: Administrative reasons (%) [2]: 2 (0.2) patients (%)
Reason for reduction: Adverse event (%) [2]: 222 (24.4) patients (%)
Reason for reduction: Dosing error (%) [2]: 6 (0.7) patients (%)
Reason for reduction: Other (%) [2]: 0 (0.0) patients (%)
Total number of dose reductions [2]: 287
progression-free-survival versus chemotherapy [3]: more effective than chemotherapy
